In patent publication US8796303B2, “Imidazo[2,1-G][1,7]naphthyridines for treating respiratory syncytial virus infections” (Biota Scientific Management Pty Ltd., priority 2010, dated 2014):
Values after ≈ are worked out from the molar mass of the structure shown. Like-named read-outs stand apart in the source and are kept apart here.

Columns and labels:
[1] = test system: RSV A2; assay: RSV antiviral CPE assay in HEp2 cells (MTT); type: cell-based, respiratory syncytial virus; conditions: for activity compared with the 3-substituted isoxazol-4-yls of the present invention: comparative RSV activity; for EC50: human respiratory syncytial virus, HEp-2, 120 h, HEp2 cells, RSV A2 moi ~0.01, 5 days, CPE by MTT
Procedure: Compounds of the invention were tested for their antiviral activity against respiratory syncytial virus. Cytopathic effect (CPE) assays were performed essentially as described in the literature (see for example Watanabe et al, 1994, J. Virological Methods, 48:257). Serial dilutions of the test compounds were made in 96 well plates. HEp2 cells (1.0×10^4 cells/well) were infected with RSV at a low multiplicity of infection (e.g. RSV A2 at an moi of ˜0.01) and added to plates to assess antiviral activity. Uninfected HEp2 cells were used to assess compound cytotoxicity. Assays were incubated for 5 days at 37° C. in a 5% CO2 atmosphere. The extent of CPE was determined via metabolism of the vital dye 3-(4,5-dimethylthiaxol-2-yl)-2,5-diphenyltetrazolium bromide (MTT). MTT (1 mg/ml) was added to each well and plates incubated for 2 hours incubation at 37° C. Wells were aspirated, iso-propanol (200 μL) was added and absorbance values read at 540/650 nm. Compound concentrations that inhibited CPE by 50% (EC50) and developed cytotoxicity (CC50) were calculated using non-linear regression analysis. The CC50 values of the compounds tested were determined to be >5000 nM.

[2] = Aqueous solubility by laser nephelometry; type: physicochemical; conditions: for solubility compared with the 3-substituted isoxazol-4-yls of the present invention: comparative solubility; for solubility at 30 min: kinetic from dmso stock, 1% DMSO, 30 minute incubation at 25° C., range 1.6-100
Procedure: Test compounds prepared in DMSO were screened in duplicate over a range of concentrations (1.6-100 ug/mL) in different aqueous media (for example pH2 or pH6.5 buffers which are relevant to the stomach and upper regions of the small intestine). Test compounds were serially diluted in 100% DMSO ranging from 10-0.16 mg/mL. These diluted compounds were then added to test plates (UV Star Griener 96 well plates) containing assay buffers with a further 1:100 dilution keeping a constant 1% DMSO concentration across the plate.

[3] = pH 2, simulated gastric fluid, pH2 buffer, read-out: Solubility at pH2
[4] = pH 6.5, aqueous buffer, pH6.5 buffer, read-out: Solubility at pH6.5

SMILES | EC50 [1] [nM] | solubility compared with the 3-substituted isoxazol-4-yls of the present invention [2] | solubility at 30 min [2, 3] [µg/mL] | solubility at 30 min [2, 4] [µg/mL] | activity compared with the 3-substituted isoxazol-4-yls of the present invention [1] | drop in activity against the 3-substituted isoxazol-4-yl compound of example 4 ([1]; RSV A2 antiviral activity, compared with example 4)
Cc1nocc1C(=O)N1CCN2C(=O)c3nccnc3CC12c1ccc(Cl)cc1 (stereo not drawn) [Compound 1, 5a-(4-chlorophenyl)-6-[(3-methyl-1,2-oxazol-4-yl)carbonyl]-5a,6,7,8-tetrahydroimidazo[1′,2′:1,6]pyrido[3,4-b]pyrazin-10(5H)-one] | 6.3 | – | 50 to 100 (≈ 122 to 244 µM) | 50 to 100 (≈ 122 to 244 µM) | – | –
O=C(c1conc1C(F)(F)F)N1CCN2C(=O)c3ncccc3CC12c1ccc(Cl)cc1 (stereo not drawn) [Compound 13, 10a-(4-chlorophenyl)-1-{[3-(trifluoromethyl)-1,2-oxazol-4-yl]carbonyl}-2,3,10,10a-tetrahydroimidazo[2,1-g][1,7]naphthyridin-5(1H)-one] | 7 | – | 50 to 100 (≈ 108 to 216 µM) | 50 to 100 (≈ 108 to 216 µM) | – | –
Cc1nocc1C(=O)N1CCN2C(=O)c3ncccc3CC12C1CCCCC1 (stereo not drawn) [Compound 11, 10a-cyclohexyl-1-[(3-methyl-1,2-oxazol-4-yl)carbonyl]-2,3,10,10a-tetrahydroimidazo[2,1-g][1,7]naphthyridin-5(1H)-one] | 70 | – | > 100 | > 100 | – | –
Cc1nocc1C(=O)N1CCN2C(=O)c3ncccc3CC12c1ccc(F)c(F)c1 (stereo not drawn) [Compound 7, 10a-(3,4-difluorophenyl)-1-[(3-methyl-1,2-oxazol-4-yl)carbonyl]-2,3,10,10a-tetrahydroimidazo[2,1-g][1,7]naphthyridin-5(1H)-one] | 35 | – | 25 to 50 (≈ 60.9 to 122 µM) | 50 to 100 (≈ 122 to 244 µM) | – | –
Cc1nocc1C(=O)N1CCN2C(=O)c3nccnc3CC12c1ccc(F)c(F)c1 (stereo not drawn) [Compound 8, 5a-(3,4-difluorophenyl)-6-[(3-methyl-1,2-oxazol-4-yl)carbonyl]-5a,6,7,8-tetrahydroimidazo[1′,2′:1,6]pyrido[3,4-b]pyrazin-10(5H)-one] | 30.5 | – | > 100 | > 100 | – | –
COc1ccc(C23Cc4cccnc4C(=O)N2CCN3C(=O)c2conc2C)cc1 (stereo not drawn) [Compound 3, 10a-(4-methoxyphenyl)-1-[(3-methyl-1,2-oxazol-4-yl)carbonyl]-2,3,10,10a-tetrahydroimidazo[2,1-g][1,7]naphthyridin-5(1H)-one] | 83.1 | – | > 100 | > 100 | – | –
Cc1nocc1C(=O)N1CCN2C(=O)c3ncccc3CC12c1ccccc1Cl (stereo not drawn) [Compound 10, 10a-(2-chlorophenyl)-1-[(3-methyl-1,2-oxazol-4-yl)carbonyl]-2,3,10,10a-tetrahydroimidazo[2,1-g][1,7]naphthyridin-5(1H)-one] | 36.9 | – | > 100 | > 100 | – | –
Cc1nocc1C(=O)N1CCN2C(=O)c3ncccc3CC12c1ccc2c(c1)CCO2 (stereo not drawn) [Compound 14, 10a-(2,3-dihydro-1-benzofuran-5-yl)-1-[(3-methyl-1,2-oxazol-4-yl)carbonyl]-2,3,10,10a-tetrahydroimidazo[2,1-g][1,7]naphthyridin-5(1H)-one] | 13.6 | – | > 100 | 50 to 100 (≈ 120 to 240 µM) | – | –
Cc1nocc1C(=O)N1CCN2C(=O)c3ncccc3CC12c1ccc(F)cc1 (stereo not drawn) [Compound 4, 10a-(4-fluorophenyl)-1-[(3-methyl-1,2-oxazol-4-yl)carbonyl]-2,3,10,10a-tetrahydroimidazo[2,1-g][1,7]naphthyridin-5(1H)-one] | 27.5 | – | > 100 | > 100 | – | –
Cc1cc(C23Cc4cccnc4C(=O)N2CCN3C(=O)c2conc2C)ccc1F (stereo not drawn) [Compound 6, 10a-(4-fluoro-3-methylphenyl)-1-[(3-methyl-1,2-oxazol-4-yl)carbonyl]-2,3,10,10a-tetrahydroimidazo[2,1-g][1,7]naphthyridin-5(1H)-one] | 6.4 | – | 25 to 50 (≈ 61.5 to 123 µM) | 50 to 100 (≈ 123 to 246 µM) | – | –
Cc1nocc1C(=O)N1CCN2C(=O)c3nccnc3CC12c1ccc(F)cc1 (stereo not drawn) [Compound 5, 5a-(4-fluorophenyl)-6-[(3-methyl-1,2-oxazol-4-yl)carbonyl]-5a,6,7,8-tetrahydroimidazo[1′,2′:1,6]pyrido[3,4-b]pyrazin-10(5H)-one] | 27.6 | – | > 100 | > 100 | – | –
Cc1cc(C23Cc4nccnc4C(=O)N2CCN3C(=O)c2conc2C)ccc1F (stereo not drawn) [Compound 9, 5a-(4-fluoro-3-methylphenyl)-6-[(3-methyl-1,2-oxazol-4-yl)carbonyl]-5a,6,7,8-tetrahydroimidazo[1′,2′:1,6]pyrido[3,4-b]pyrazin-10(5H)-one] | 9 | – | 50 to 100 (≈ 123 to 245 µM) | > 100 | – | –
Cc1oncc1C(=O)N1CCN2C(=O)c3ncccc3CC12c1ccc(F)cc1 (stereo not drawn) [Compound A, reference compound] | 276 | – | – | – | – | ten-fold drop in activity
Cc1nocc1C(=O)N1CCN2C(=O)c3ncccc3CC12C1CCC(F)(F)CC1 (stereo not drawn) [Compound 12, 10a-(4,4-difluorocyclohexyl)-1-[(3-methyl-1,2-oxazol-4-yl)carbonyl]-2,3,10,10a-tetrahydroimidazo[2,1-g][1,7]naphthyridin-5(1H)-one] | 64.4 | – | 50 to 100 (≈ 120 to 240 µM) | > 100 | – | –

Now from value to compound, other results behind:

EC50 [1] [nM] | solubility compared with the 3-substituted isoxazol-4-yls of the present invention [2] | solubility at 30 min [2, 3] [µg/mL] | solubility at 30 min [2, 4] [µg/mL] | SMILES | activity compared with the 3-substituted isoxazol-4-yls of the present invention [1] | drop in activity against the 3-substituted isoxazol-4-yl compound of example 4 ([1]; RSV A2 antiviral activity, compared with example 4)
560 | less soluble | – | – | O=C(c1ccno1)N1CCN2C(=O)c3cccnc3CC12c1ccc(Cl)cc1 (stereo not drawn) [Compound 1-100, reference compound] | less active | –
12.4 | – | > 100 | > 100 | Cc1nocc1C(=O)N1CCN2C(=O)c3nccnc3C[C@]12c1ccc(F)cc1 (single isomer, unassigned) [Compound 5A] | – | –
1710 | less soluble | 3.1 to 6.3 (≈ 7.87 to 16 µM) | 3.1 to 6.3 (≈ 7.87 to 16 µM) | O=C(c1ccno1)N1CCN2C(=O)c3ccccc3CC12c1ccc(Cl)cc1 (stereo not drawn) [Compound 1-025, reference compound] | less active | –
16.3 | – | > 100 | > 100 | Cc1nocc1C(=O)N1CCN2C(=O)c3ncccc3C[C@]12c1ccc(F)cc1 (single isomer, unassigned) [Compound 4A] | – | –
175 | less soluble | < 1.6 | < 1.6 | O=C(c1ccon1)N1CCN2C(=O)c3cccc(F)c3CC12c1ccc(Cl)cc1 (stereo not drawn) [Compound 1-086, reference compound] | less active | –
7.7 | – | 50 to 100 (≈ 123 to 246 µM) | > 100 | Cc1cc([C@]23Cc4cccnc4C(=O)N2CCN3C(=O)c2conc2C)ccc1F (single isomer, unassigned) [Compound 6A] | – | –
5.2 | – | 50 to 100 (≈ 122 to 244 µM) | > 100 | Cc1nocc1C(=O)N1CCN2C(=O)c3nccnc3C[C@]12c1ccc(Cl)cc1 (single isomer, unassigned) [Compound 1A] | – | –
5000 | – | – | – | Cc1nocc1C(=O)N1CCN2C(=O)c3ncccc3C[C@@]12c1ccc(Cl)cc1 (single isomer, unassigned) [Compound 2B] | – | –
267 | less soluble | 3.1 to 6.3 (≈ 7.53 to 15.3 µM) | 3.1 to 6.3 (≈ 7.53 to 15.3 µM) | O=C(c1ccno1)N1CCN2C(=O)c3cccc(F)c3CC12c1ccc(Cl)cc1 (stereo not drawn) [Compound 1-088, reference compound] | less active | –
